From PubChem BioAssay AID1996 come the findings set out here.

One may read the kinetic solubility as solubility judged after dilution from a stock solution rather than from solid.

Converted amounts (≈) assume the structure as drawn. Some results are limits rather than exact numbers.

For this data set the following is noted: buffer; pH 7.4; 200.0 µM.
As for `COc1ccc2c(c1)sc1nc(=O)ccn12`, the kinetic solubility is over 34.8 µg/mL.
As for `CCOc1ccccc1C(=O)NCC(=O)N(C)Cc1ccccc1C`, the figure is over 51.1 µg/mL; as for `COCCC(=O)Nc1ccc2c(c1)CN(C(=O)CSC)CC2`, over 48.4 µg/mL; as for `Cc1ccc(Sc2cc(C)nc(-c3ccccn3)n2)cc1`, 36.8 µg/mL (≈ 125 µM).
`Cc1ccccc1C(=O)NCCCn1ccnc1` registered a solubility (kinetic) of over 36.5 µg/mL.
As for `Cc1ccc(OCC(=O)NCCCNC(=O)c2ccccn2)cc1`, the figure is over 49.1 µg/mL; as for `CN1CCN(C(=O)/C(C#N)=C/c2ccc(F)cc2)CC1.Cl`, over 46.5 µg/mL.
The value for `O=Cc1ccc(OCC(=O)Nc2ccccc2-c2ccccc2)cc1` was 0.8 µg/mL (≈ 2.41 µM); that for `Cc1cccc(OCc2ccc(C(=O)N3CCOCC3)o2)c1` was over 45.2 µg/mL; that for `CC(=O)/C=C/c1ccccc1Oc1c(F)c(F)nc(F)c1F` was 17.8 µg/mL (≈ 57.2 µM).
The value for `CC1CC(C)CN(C(=O)CSCC(=O)O)C1` (centres undefined) was over 36.8 µg/mL; that for `Cc1ccc(-c2c[n+](Cc3ccc(Cl)cc3)c3n2CCC3)cc1.[Cl-]` was over 53.9 µg/mL.
Molecule `CCC(=O)c1ccc(N2CCN(C(=O)c3ccc(F)cc3)CC2)c(F)c1` displayed a solubility (kinetic) of over 53.8 µg/mL.
For the molecule `CCN1C(=O)CC(c2ccc(OC(C)C)cc2)C1=O` (centres undefined), the solubility (kinetic) was over 39.2 µg/mL.
`COc1ccc([N+](=O)[O-])c(OC)c1C(=O)NC(=O)Nc1nc(C)cc(C)n1`: the solubility (kinetic) was determined as 43.6 µg/mL (≈ 116 µM).
As for `O=C(COC(=O)c1ccc(O)cc1O)NC1CC1`, the figure is over 37.7 µg/mL; as for `COc1cc2[nH]c(=S)n(C3CC3)c(=O)c2cc1OC`, 7.6 µg/mL (≈ 27.3 µM); as for `CCC1CCCCN1C(=S)NC(=O)c1ccco1` (centres undefined), over 40 µg/mL.
As for `O=C(Cc1csc(-c2ccccc2)n1)NCc1ccco1`, the figure is 39.1 µg/mL (≈ 131 µM).
As to `O=[N+]([O-])c1ccc(NCCc2ccccc2)c(Br)c1`, the kinetic solubility was found to be 0.7 µg/mL (≈ 2.18 µM).
As for `COCc1cc(SC2CCCCC2)nc(C)n1`, the figure is 11.7 µg/mL (≈ 46.4 µM).
The molecule `CCN1CCN(c2ccc(NC(=O)c3ccco3)cc2)CC1` came in with a kinetic solubility of 40.2 µg/mL (≈ 134 µM).
The molecule `CC(C(=O)N1CCCC1)N(C)CC(=O)Nc1cccc(F)c1` (centres undefined) registered a solubility (kinetic) of 37 µg/mL (≈ 120 µM).
The value for `Cc1ccc(C(=O)Nc2ccc(OCc3ccccc3)cc2)s1` was 3.8 µg/mL (≈ 11.7 µM).
The value for `CC(Oc1cccnc1[N+](=O)[O-])C(=O)Nc1ccc(F)cc1` (centres undefined) was over 45.8 µg/mL; that for `Fc1ccc(C2Nc3cccc4cccc(c34)N2)cc1` was 3.2 µg/mL (≈ 12.1 µM).
As for `COC(/C(=N/O)c1ccc(Cl)cc1)c1ccccc1` (centres undefined), the figure is 35.8 µg/mL (≈ 130 µM); as for `O=C(CN1CCOCC1)Nc1ccc(Br)cc1`, over 44.9 µg/mL; as for `COc1cc2c(cc1OC)CN(Cc1ccc(F)cc1)CC2`, 35.7 µg/mL (≈ 118 µM).
`CN1CCN(S(=O)(=O)c2cccc(C(=O)N3CCN(c4ccccc4)CC3)c2)CC1`: the solubility (kinetic) is 63.6 µg/mL (≈ 148 µM).
In turn, `COc1ccc(CNC(=O)CN2C(=O)NC(c3ccccc3)(c3ccccc3)C2=O)cc1` showed a solubility (kinetic) of 4.5 µg/mL (≈ 10.5 µM).
In turn, `O=C1CCC/C1=C/Nc1cccc(F)c1` yielded a kinetic solubility of 23.6 µg/mL (≈ 115 µM).
As for `CC(C)C(NC(=O)c1ccccc1)C(=O)NCCc1ccccc1` (centres undefined), the figure is 9.4 µg/mL (≈ 29 µM); as for `CNC(=O)Nc1ccc2nc(C)oc2c1`, over 30.8 µg/mL; as for `CC(=O)c1ccc(OCC(=O)Nc2ccccc2N2CCCC2)cc1`, 44.4 µg/mL (≈ 131 µM).
As to `Nc1cc(N2CCCC2)c(Cl)cc1[N+](=O)[O-]`, the kinetic solubility stood at 3 µg/mL (≈ 12.4 µM).
As for `CCOC(=O)C1CCCN(Cc2cccc(Oc3ccccc3)c2)C1` (centres undefined), the figure is 3.1 µg/mL (≈ 9.13 µM); as for `N#C/C(=C\c1ccc(F)cc1)C(=O)NC1CCS(=O)(=O)C1` (centres undefined), 33.8 µg/mL (≈ 110 µM).
The value for `Cc1noc(C)c1COC(=O)CNC(=O)c1ccc(Cl)cc1` was over 48.4 µg/mL; that for `Clc1ccc(Oc2ccccc2)c2ncccc12` was 10.7 µg/mL (≈ 41.8 µM).
The value for `COc1ccc(C2=NOC(C(=O)Nc3cccc(O)c3)C2)cc1` (centres undefined) was 22.8 µg/mL (≈ 73 µM).
With `Cc1ccc(C(=O)Nc2scc(-c3ccccc3)c2C(=O)O)cc1`, the kinetic solubility is over 50.6 µg/mL.
The value for `O=C1OCc2ccc(NC(=O)c3ccccc3C(=O)O)cc21` was over 44.6 µg/mL; that for `Cc1ccc(SCC(=O)O/N=C(\N)c2ccncc2)cc1` was 29.4 µg/mL (≈ 97.6 µM).
Consider `Clc1ccc(N=c2ssnc2Cl)cc1`, for which the kinetic solubility is 2.7 µg/mL (≈ 10.3 µM).
On to `Cc1cccc(C(=O)Nc2sc3c(c2C(=O)O)CCC3)c1`, for which the solubility (kinetic) is over 45.2 µg/mL.
As to `O=C1NC(=O)C(=Cc2ccc(-c3ccccc3[N+](=O)[O-])o2)C(=O)N1`, the solubility (kinetic) came out at 44.2 µg/mL (≈ 135 µM).
The molecule `COc1ccccc1CCNC(=O)Cc1cccs1` returned a kinetic solubility of 37.5 µg/mL (≈ 136 µM).
Regarding `O=[N+]([O-])c1cccc(-c2csc(CS(=O)(=O)Cc3ccco3)n2)c1`, the solubility (kinetic) is 0.6 µg/mL (≈ 1.65 µM).
As for `Cc1ccc(NC(=O)c2cccs2)cc1NC(=O)c1ccc(F)cc1`, the figure is 2 µg/mL (≈ 5.64 µM).
`Cc1ccc(SCCC(=O)N/N=C/c2cccnc2)cc1` yielded a kinetic solubility of over 44.9 µg/mL.
As for `Cc1cc(C)nc(SCC(N)=O)n1`, the figure is 28.5 µg/mL (≈ 144 µM); as for `CCc1ccc(OCC(=O)Nc2ccncc2)c(Br)c1`, 15.5 µg/mL (≈ 46.2 µM); as for `C/C(=N\O)c1cc(Cl)cc(Cl)c1O`, 30.5 µg/mL (≈ 139 µM).
The value for `Cc1ccc(S(=O)(=O)c2ncccc2[N+](=O)[O-])cc1` was 40.9 µg/mL (≈ 147 µM).
As for `COc1cc(/C=N/NC(=O)CNC(=O)c2ccncc2)ccc1O`, the figure is over 49.2 µg/mL.
Take `CCCCOc1ccc(C(=O)NCC(=O)NC2CCCCC2)cc1`: the kinetic solubility came to 4.7 µg/mL (≈ 14.1 µM).
The value for `N#Cc1c(N)n(-c2cccc(O)c2)c2nc3ccccc3nc12` was 6.4 µg/mL (≈ 21.2 µM); that for `Cc1ccc(S(=O)(=O)N2CCN(C)CC2)cc1C` was 31.3 µg/mL (≈ 117 µM); that for `CNc1nc(-c2c(C)n(C)c3ccc(OC)cc23)cs1` was 23.9 µg/mL (≈ 83.2 µM).
As for `CC(C)NC(=S)Nc1ccc2[nH]c(=O)[nH]c2c1`, the figure is over 37.5 µg/mL; as for `CC1CCCC(C)N1C(=O)COC(=O)c1cccnc1Cl` (centres undefined), over 46.6 µg/mL; as for `Cc1ccc(OCCCCN2CCc3ccccc3C2)c(C)c1.Cl`, 4.8 µg/mL.
As for `CC1CN(C(=S)Nc2ccc(Cl)cc2)CC(C)O1` (centres undefined), the figure is over 42.7 µg/mL; as for `Cc1ccccc1NC(=O)NCc1ccccn1`, over 36.2 µg/mL; as for `CCOCCCNC(=O)c1oc2ccc3c(c2c1C)C(O)CC(C)(C)O3` (centres undefined), over 54.2 µg/mL.
`COc1ccc(NC(=O)/C(=C/c2cccs2)NC(=O)c2ccco2)cc1` gave a kinetic solubility of 5 µg/mL (≈ 13.6 µM).
As for `O=C(Nc1ccc(F)cc1)c1ccc(S(=O)(=O)N2CCCC2)cc1`, the figure is 4.4 µg/mL (≈ 12.6 µM); as for `CCOC(=O)c1sc(=NC(=O)CCSc2ccccc2)n(C)c1C`, under 0.4 µg/mL; as for `CC(C)CN1C(=O)C(=O)N(CC(=O)c2ccc[nH]2)C1=O`, 40.7 µg/mL (≈ 147 µM).
The value for `O=C(CN1CCN(C(=O)c2ccc(OCc3cn4ccccc4n3)cc2)CC1)Nc1cccc(F)c1` was 8.6 µg/mL (≈ 17.6 µM); that for `CCN(Cc1nc(-c2ccc(Cl)cc2)no1)CC1CCCO1` (centres undefined) was 25.8 µg/mL (≈ 80.2 µM); that for `Cc1ccc(CCC(=O)Nc2ccc([N+](=O)[O-])cc2)o1` was 30.9 µg/mL (≈ 113 µM).
As for `O=C(O)CC1SC(=O)N(CC(=O)c2ccccc2)C1=O` (centres undefined), the figure is over 44 µg/mL.
Consider `CC1CCC(N2CCN(c3ccc([N+](=O)[O-])cc3)CC2)CC1` (centres undefined), for which the solubility (kinetic) was determined as 19.1 µg/mL (≈ 63 µM).
`Cc1ccc(C2C(C#N)=C(N)Oc3cc(C)oc(=O)c32)o1` (centres undefined) yielded a kinetic solubility of over 42.6 µg/mL.
As for `c1csc(-c2nnc(COc3ncnc4sccc34)o2)c1`, the figure is over 47.5 µg/mL; as for `COC(=O)[C@@H](NC(=O)N1CCC(Cc2ccccc2)CC1)C(C)C`, over 49.9 µg/mL.
The value for `Cc1cccc(NC2=C(Cl)C(=O)OC2OC(C)C)c1` (centres undefined) was over 42.3 µg/mL; that for `O=S(=O)(c1cccs1)N1CCC(CO)(Cc2cccc(F)c2)CC1` was 53.8 µg/mL (≈ 146 µM); that for `Cc1ccc(C)c(NC(=O)CCN2CC(C)CC(C)C2)c1` (centres undefined) was 32.7 µg/mL (≈ 113 µM).
In turn, `O=S1(=O)CCC(NS(=O)(=O)c2ccc3ccccc3c2)C1` (centres undefined) showed a kinetic solubility of over 48.8 µg/mL.
Consider `CN(C)c1nc2c(c(=O)[nH]c(=O)n2C)n1CCCc1ccccc1`, for which the kinetic solubility is over 49.1 µg/mL.
The value for `COc1ccc(-c2cc(C(=O)NC3CCCC3)c3ccccc3n2)cc1` was 4.7 µg/mL (≈ 13.6 µM); that for `O=C(NCCc1ccccc1F)c1ccc2c(c1)OCCO2` was over 45.2 µg/mL.
As for `Cc1ccccc1/C=C1\C(=O)Nc2ccc(F)cc21`, the figure is 0.9 µg/mL (≈ 3.55 µM).
Take `COCCCNC1CS(=O)(=O)CC1O.Cl` (centres undefined): the kinetic solubility is over 39 µg/mL.
The value for `Cl.OC1(C#CCN2CCCC2)CCCCC1` was 34.2 µg/mL; that for `COc1ccc(CN2C(=O)c3cccc4cccc2c34)cc1F` was 9.8 µg/mL (≈ 31.9 µM); that for `CC(C)(C)CC(C)(C)NC(=O)c1ccccc1` was over 35 µg/mL.
As for `CCCCCCNc1nc(Cl)nc(NC(C)(C)CO)n1`, the figure is 3.1 µg/mL (≈ 10.3 µM); as for `CCOC(=O)c1c(C)[nH]c(C(=O)COC(=O)c2ccc([N+](=O)[O-])o2)c1C`, 4.4 µg/mL (≈ 12.1 µM).
Molecule `COc1ccc([N+](=O)[O-])c(S(=O)(=O)c2ccccc2)n1` registered a solubility (kinetic) of 5.6 µg/mL (≈ 19 µM).
`CC(C)(C)OC(=O)NCCCCCO` registered a solubility (kinetic) of over 30.5 µg/mL.
As for `COc1ccccc1Oc1ccc2c(c1)C(=O)N(CC1CCCO1)C2=O` (centres undefined), the figure is 40.3 µg/mL (≈ 114 µM); as for `COc1cc(OC)nc(/N=C/N(C)C)n1`, over 31.5 µg/mL; as for `CN(C(=O)c1cccc(NC(=O)c2ccco2)c1)c1ccccc1`, over 48.1 µg/mL.
As for `CC(=O)N1CCN(c2c(F)c(F)c(C(F)(F)F)c(F)c2F)CC1`, the figure is 47.9 µg/mL (≈ 139 µM); as for `COC(=O)C1=C(Nc2ccccc2NC(=O)c2ccccc2C(=O)O)CSC1`, over 59.8 µg/mL.
The value for `CCC(=O)c1ccc(OCC(=O)OCC(=O)N(CCC#N)c2ccc3c(c2)OCCO3)cc1` was 47.5 µg/mL (≈ 105 µM); that for `COC(=O)c1cnc[nH]1` was over 18.9 µg/mL.
The molecule `CC(NC(=O)c1ccccc1F)C1CC1` (centres undefined) displayed a kinetic solubility of over 31.1 µg/mL.
On to `CC(C(=O)N1CCCC1)N1CCN(c2ccccc2O)CC1` (centres undefined), for which the kinetic solubility was over 45.5 µg/mL.
The value for `CC(=O)Nc1ccc(C(=O)Nc2ccc3c(c2)OCCO3)cc1` was 22.8 µg/mL (≈ 73 µM).
